What was measured:
Src (p60^c-src) = molecular target: T1, Src (p60^c-src) (Homo sapiens, UniProt P12931); experiment: SRC-Inhibitor-Assay (time-resolved fluorescence kinase assay); assay type: biochemical; conditions: ATP 5 μM; enzyme pre-incubated with inhibitor 15 min at 15° C.
T1 construct: purchased Upstate (UBI)
Procedure: SRC-Inhibitor-Assay Parameters:
Assay buffer: 4 mM MgCl2 • 2 mM TCEP • 50 mM HEPES • 0.1% Tween 20 • pH 7.3
Inhibitor: max. 25 μM • min. 0.42 nM Material:
Eu-labelled phosphotyrosine antibody:—for Lck Cisbio Mab PT66-K, • for Src EG&G Wallac PT66 Eu-W1024 (all commercially available).
Peptides: Ro: NH2-A-E-E-E-I-Y-G-E-F-E-A-K-K-K-K-CONH2 (SEQ ID NO: 1), and Ja133-Ro: Ja133-G-Aminocaprylic acid-A-E-E-E-I-Y-G-E-F-E-A-K-K-K-K-CONH2 (SEQ ID NO: 2) wherein Ja133 is LightCycler-Red 640-N-hydroxy succinimide ester; whereby both peptides were synthesized by an optimized solid phase peptide synthesis protocol (Merrifield, Fed. Proc. Fed. Amer. Soc. Exp. Biol. 21 (1962) 412) on a Zinsser SMP350 peptide synthesizer. Shortly, the peptide was assembled on 160 mg (22.8 μmol scale) of a Rink-Linker modified polystyrene solid phase by repeatedly conjugating an twenty fold excess of aminoacids each protected by temporary piperidine labile Fmoc- and permanent acid labile tert-Bu-, BOC- and Otert-Bu-groups depending on the side chain function. The substrate sequence AEEEIYGEFEAKKKK (SEQ ID NO: 1) was N-terminal additionally mounted with the spacer amino acids Aminocaprylic acid and Glycin. After cleavage of the N-terminal temporary protecting group the still attached and protected peptide was labeled with a 1.5 fold amount of LightCycler-Red 640-N-hydroxy succinimide ester (purchased by Roche Diagnostics GmbH) and triethylamine. After 3 hrs. the resin was washed with Dimethylformamide and Isopropanol until the eluates of the blue resin got colourless. […] The substrate was finally isolated by a preparative reverse phase HPLC purification. The purification yielded 12.2 mg RP-HPLC single peak pure blue material (lyophilisate). The identity was proven by MALDI mass spectroscopy [2720.0].
Enzymes: Upstate Lck (p56^lck, active), Upstate Src (p60^c-src, partially purified) were purchased from UBI.
Time-resolved Fluorescence Assay: Reader: Perkin Elmer, Wallac Viktor 1420-040 multilabel counter; Liquid handling system: Beckman Coulter, Biomek 2000.
ATP, Tween 20, HEPES were purchased from Roche Molecular Biochemicals, MgCl2 and MnCl2 were purchased from Merck Eurolab, TCEP was purchased from Pierce, 384 Well low volume fluorescence plates was purchased from Falcon.
At first the enzyme is pre-incubated for 15 min. at 15° C. in aqueous solution with corresponding amounts of inhibitors according to this invention. Then the phosphorylation reaction is started by adding a reaction mixture, containing ATP, Peptide and PT66, and subsequent shaking. The proceeding of this reaction is immediately monitored using time resolved fluorescence spectroscopy in a suitable well plate reader.
The IC50-values can be obtained from the reaction rates by using a non-linear curve fit (Excelfit).

c-met = molecular target: T2, c-met (Homo sapiens, UniProt P08581); experiment: C-met-Inhibitor-Assay (ELISA type assay measuring phosphorylation of c-met from HT29 cell lysate); assay type: biochemical; conditions: ATP final conc. 40 μM, 60 min at room temperature
T2 construct: Cell lysate of human colon adenocarcinoma HT29 known for its high content of c-met; endogenous in cells; host or cells: HT29 (ATCC HTB-38), human colon adenocarcinoma
From the text: C-met-Inhibitor-Assay: Assay Principle
C-met is a typical tyrosine kinase which is involved in metastasis, proliferation/apoptosis and angiogenesis of tumors. The assay is an ELISA type assay measuring the phosphorylation of c-met using a phospho-tyrosine specific antibody.
Cell lysate of human colon adenocarcinoma HT29 known for its high content of c-met is bound to the wells of a microtiterplate (MTP) via an anti-hHGF receptor antibody (anti-hHGFR). ATP-phosphorylation of c-met is detected in presence or absence of the test compounds by using a phospho-tyrosine mouse IgG and a POD labeled goat anti-mouse IgG detection system. Using the classical POD substrate TMB, an absorption at 450 nm/620 nm is used to calculate enzymatic activity.
Plates: 96-well polystyrene plates (NUNC) streptavidin-coated microtiter plates Cell line/Lysate: HT29 (ATCC HTB-38), human colon adenocarcinoma (confluence: 2.5×10^5 cells/cm^2) are washed with PBS and incubated with Lysis buffer for 10 min on ice. Supernatent is collected and diluted with TBS. Lysate is shockfrozen in liquid nitrogen and stored at −80° C.)
Reagents (all working solutions are kept at 4° C., unless stated otherwise): • anti-hHGFR detection stock solution: 50 μg/ml (R&D Systems, Cat.No. BAF 358) antibody final conc.: 1 μg/ml • p-Tyr (PY99) mouse stock solution: 200 μg/ml (Santa Cruz Biotechnology, monoclonal IgG2b Cat.No. SC-7020) final conc.: 0.2 μg/ml • goat-anti-mouse IgG: 2 ml (BIO RAD, Cat.No. 170-6516) • (H+L)-HRP Conjugate; final conc.: 1:2000 • Blocking Reagent: Roche Diagnostics GmbH, Cat.No.1112589 for ELISA diluted 1:10 in TBS • ATP: Adenosine-5′-triphosphate, stock solution 10 mM, stock solution 10 mM (Roche • Diagnostics GmbH, Cat.No. 127531) final conc.: 40 μM • TBS: Tris-buffered saline, 50 mM TRIS pH 7.5 (Roche Diagnostics GmbH, Cat.No. 708976), 150 mM NaCl (SIGMA, Cat.No. S-3014) • Wash buffer TBS-T: Tris-buffered saline, 50 mM TRIS pH 7.5 150 mM NaCl, containing 0.5% Tween20 • Kinase buffer: Tris-buffered saline, 50 mM TRIS pH 7.5, 100 mM NaCl, 60 mM MgCl2 (SIGMA Chemical Company, Cat.No. M-1028) • Lysis buffer: 50 mM TRIS pH 7.5 containing 1% Nonidet P40 (Roche Diagnostics GmbH, Cat.No.1754599) 0.5% Deoxycholic acid (SIGMA Chemical Company, Cat.No. D-6750) • final conc.: 1 mM 1 mM PMSF stock solution 70 mM (Roche Diagnostics GmbH, • Cat.No.837091 40 μl/ml Complete (Roche Diagnostics GmbH, Cat.No. 1836145) Final conc.: 40 μl/ml • TMB: Tetramethylbenzidine (Intergen Company, Cat.No. 91000) • Samples: 10 mM in DMSO (stored at −20° C.), thawed at room temperature
Procedure: • Add 50 μl of anti-hHGFR detection antibody in blocking reagent to assay plate (final conc. 1 μg/ml), incubate assay plate for 60 min at room temperature on an MTP shaker. • Remove anti-hHGFR detection antibody solution from assay plate. • Add 250 μl blocking reagent per well to assay plate, incubate assay plate for 20 h, at 4° C. • Remove blocking reagent from assay plate. • Add 50 μl of HT29 lysate, incubate assay plate for 180 min, at 4° C. on an MTP shaker. • Wash assay plate with 2×200 μl TBS buffer per well. • Add 40 μl of 0.2% DMSO in kinase buffer to assay plate. • Add 40 μl sample solution (dissolved in kinase buffer—final conc. 22.5 μM). • Dissolve samples (1:3 ratio) in MTP. • Add 10 μl ATP dissolved in kinase buffer (200 μM) to samples (final conc. 40 μM ATP). Positive control: add 40 μl kinase buffer plus 10 μl 200 μM ATP. Negative control: add 40 μl kinase buffer plus 10 μl kinase buffer without ATP. […]

T2 sequence (P08581 25-1390): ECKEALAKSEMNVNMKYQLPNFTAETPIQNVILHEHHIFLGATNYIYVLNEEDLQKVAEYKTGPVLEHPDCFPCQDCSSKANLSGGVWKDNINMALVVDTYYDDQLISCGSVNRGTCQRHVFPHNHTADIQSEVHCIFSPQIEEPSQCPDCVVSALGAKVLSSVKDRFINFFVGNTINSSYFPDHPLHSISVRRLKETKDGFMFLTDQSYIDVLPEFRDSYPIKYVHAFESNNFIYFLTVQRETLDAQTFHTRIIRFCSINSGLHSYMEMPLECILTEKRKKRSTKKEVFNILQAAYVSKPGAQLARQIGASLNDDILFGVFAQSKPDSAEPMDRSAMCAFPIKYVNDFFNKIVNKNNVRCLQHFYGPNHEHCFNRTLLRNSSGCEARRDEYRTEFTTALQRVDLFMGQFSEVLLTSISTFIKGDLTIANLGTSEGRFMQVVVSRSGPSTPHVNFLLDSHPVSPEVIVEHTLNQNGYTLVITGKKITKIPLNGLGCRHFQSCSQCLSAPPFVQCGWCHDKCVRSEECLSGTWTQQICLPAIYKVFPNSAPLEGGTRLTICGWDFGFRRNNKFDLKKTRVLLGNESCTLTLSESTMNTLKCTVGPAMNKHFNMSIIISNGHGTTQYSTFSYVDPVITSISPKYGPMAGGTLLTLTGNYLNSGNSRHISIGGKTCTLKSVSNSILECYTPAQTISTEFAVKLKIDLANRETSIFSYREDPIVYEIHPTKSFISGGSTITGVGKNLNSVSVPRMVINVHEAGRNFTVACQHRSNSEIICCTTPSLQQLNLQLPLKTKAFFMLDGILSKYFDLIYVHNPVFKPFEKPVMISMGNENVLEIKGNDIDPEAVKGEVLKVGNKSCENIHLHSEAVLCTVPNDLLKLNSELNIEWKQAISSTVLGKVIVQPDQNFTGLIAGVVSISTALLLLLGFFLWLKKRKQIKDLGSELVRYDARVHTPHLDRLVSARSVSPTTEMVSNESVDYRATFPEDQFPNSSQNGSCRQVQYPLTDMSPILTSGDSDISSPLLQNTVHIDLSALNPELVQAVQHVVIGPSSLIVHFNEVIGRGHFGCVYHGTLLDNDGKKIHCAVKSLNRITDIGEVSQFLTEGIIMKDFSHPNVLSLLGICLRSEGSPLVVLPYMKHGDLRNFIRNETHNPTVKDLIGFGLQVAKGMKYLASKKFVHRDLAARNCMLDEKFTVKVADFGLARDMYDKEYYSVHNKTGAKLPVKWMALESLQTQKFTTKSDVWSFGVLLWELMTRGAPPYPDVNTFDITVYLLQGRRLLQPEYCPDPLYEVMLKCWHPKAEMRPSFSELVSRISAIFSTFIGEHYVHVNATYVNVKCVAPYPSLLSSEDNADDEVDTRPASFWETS
T1 sequence (P12931 whole entry): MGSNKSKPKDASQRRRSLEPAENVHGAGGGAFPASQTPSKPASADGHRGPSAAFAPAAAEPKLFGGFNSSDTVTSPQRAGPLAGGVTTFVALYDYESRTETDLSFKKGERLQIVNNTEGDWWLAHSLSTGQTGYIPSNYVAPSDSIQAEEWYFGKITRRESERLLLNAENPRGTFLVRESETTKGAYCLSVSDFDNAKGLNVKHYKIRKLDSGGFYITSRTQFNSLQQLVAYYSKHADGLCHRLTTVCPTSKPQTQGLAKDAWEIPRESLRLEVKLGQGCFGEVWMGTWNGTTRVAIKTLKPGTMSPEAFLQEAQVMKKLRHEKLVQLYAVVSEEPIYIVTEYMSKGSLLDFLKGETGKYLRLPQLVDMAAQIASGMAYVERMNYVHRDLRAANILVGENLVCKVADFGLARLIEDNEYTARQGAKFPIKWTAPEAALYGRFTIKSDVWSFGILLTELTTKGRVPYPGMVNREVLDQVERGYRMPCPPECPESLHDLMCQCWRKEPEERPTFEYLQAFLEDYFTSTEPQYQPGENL

Row | SMILES | IC50 (Src (p60^c-src)) [nM] | IC50 (c-met) [nM]
1 | CCN(CC)CCOc1ccc(Nc2nccc(-c3[nH]c(-c4c(Cl)cccc4Cl)nc3-c3cccc(Br)c3)n2)cc1 [Example H1.1, 2-(2,6-dichlorophenyl)-4-(3-bromophenyl)-5-(2-[4-(2-diethylamino-ethoxy)phenylamino]pyrimidin-4-yl)-N—H-imidazole] | 6.7 | 5
2 | CN(C)c1ccc(Nc2nccc(-c3[nH]c(-c4c(Cl)cccc4Cl)nc3-c3cccc(Cl)c3)n2)cc1 [Example H2.1.3, 2-(2,6-dichlorophenyl)-4-(3-chlorophenyl)-5-(2-[4-dimethylaminophenyl-amino]pyrimidin-4-yl)-N—H-imidazole] | 31 | 167
3 | Clc1cccc(-c2nc(-c3c(Cl)cccc3Cl)[nH]c2-c2ccnc(Nc3ccc(N4CCOCC4)cc3)n2)c1 [Example H2.1.4, 2-(2,6-dichlorophenyl)-4-(3-chlorophenyl)-5-(2-[4-morpholinophenyl-amino]pyrimidin-4-yl)-N—H-imidazole] | 23.3 | 84
4 | CCN(CC)CCOc1ccc(Nc2nccc(-c3nc(-c4c(Cl)cc(CO)cc4Cl)[nH]c3-c3cccc(Cl)c3)n2)cc1 [Example H2.2.1, 2-(2,6-dichloro-4-hydroxymethylphenyl)-4-(3-chlorophenyl)-5-(2-[4-(2-diethylaminoethoxy)-phenylamino]pyrimidin-4-yl)-N—H-imidazole] | 0.5 | 4
5 | CCN(CC)CCOc1ccc(Nc2nccc(-c3[nH]c(-c4c(Cl)cc(OCCO)cc4Cl)nc3-c3cccc(Cl)c3)n2)cc1 [Example H2.3.1, 2-(2,6-dichloro-4-[2-hydroxyethoxy]phenyl)-4-(3-chlorophenyl)-5-(2-[4-(2-diethylaminoethoxy)-phenylamino]pyrimidin-4-yl)-N—H-imidazole] | 1.6 | –
6 | C[S+]([O-])c1ccc(Nc2nccc(-c3[nH]c(-c4c(Cl)cc(OCCO)cc4Cl)nc3-c3cccc(Cl)c3)n2)cc1 (stereo not drawn) [Example H2.3.2, 2-(2,6-dichloro-4-[2-hydroxyethoxy]phenyl)-4-(3-chlorophenyl)-5-(2-[4-methylsufinyl-phenylamino]pyrimidin-4-yl)-N—H-imidazole] | 331 | –

Second part, the molecule after the results:

Row | IC50 (Src (p60^c-src)) [nM] | IC50 (c-met) [nM] | SMILES
7 | 6.7 | – | O=S(=O)(NCCO)c1ccc(Nc2nccc(-c3[nH]c(-c4c(Cl)cc(OCCO)cc4Cl)nc3-c3cccc(Cl)c3)n2)cc1 [Example H2.3.3, 2-(2,6-dichloro-4-[2-hydroxyethoxy]phenyl)-4-(3-chlorophenyl)-5-(2-[4-(N-(2-hydroxyethyl)-ulfamoyl)phenylamino]pyrimidin-4-yl)-N—H-imidazole]
8 | 24.4 | 609 | CCN(CC)CCOc1ccc(Nc2nccc(-c3[nH]c(-c4c(Cl)cccc4Cl)nc3-c3ccc(Cl)cc3)n2)cc1 [Example H3.1.1, 2-(2,6-dichlorophenyl)-4-(4-chlorophenyl)-5-(2-[4-(2-diethylaminoethoxy)-phenylamino]pyrimidin-4-yl)-N—H-imidazole]
9 | 33.3 | 90 | C#Cc1cccc(-c2nc(-c3c(Cl)cccc3Cl)[nH]c2-c2ccnc(Nc3ccc(OCCO)cc3)n2)c1 [Example H4.1.2, 2-(2,6-dichlorophenyl)-4-(3-ethynylphenyl)-5-(2-[4-(2-hydroxyethoxy)-phenylamino]pyrimidin-4-yl)-N—H-imidazole]

From patent US7169781B2, “Imidazole derivatives and their use as pharmaceutical agents” (Hoffmann-La Roche Inc., priority 2003, dated 2007)
